Laboratory results reported in ChEMBL document CHEMBL6071125, “Biological function and small molecule inhibitors of histone deacetylase 11” (Eur J Med Chem, 2024).
Square brackets hold non-standard residues; d marks the D form. Peptide text beside a SMILES is read from it. * marks the point of attachment. Asu = N[C@@H](CCCCCC(=O)O)C(=O)O; dPip = O=C(O)[C@H]1CCCCN1; NHOH = ON*

What was measured:
[1] = target: T1, Histone deacetylase 11 (Homo sapiens) (UniProt Q96DB2); assay: Inhibition of HDAC11 (unknown origin) expressed in HEK293T cells at 100 uM relative to control; assay type: cell-based
T1 sequence (whole entry): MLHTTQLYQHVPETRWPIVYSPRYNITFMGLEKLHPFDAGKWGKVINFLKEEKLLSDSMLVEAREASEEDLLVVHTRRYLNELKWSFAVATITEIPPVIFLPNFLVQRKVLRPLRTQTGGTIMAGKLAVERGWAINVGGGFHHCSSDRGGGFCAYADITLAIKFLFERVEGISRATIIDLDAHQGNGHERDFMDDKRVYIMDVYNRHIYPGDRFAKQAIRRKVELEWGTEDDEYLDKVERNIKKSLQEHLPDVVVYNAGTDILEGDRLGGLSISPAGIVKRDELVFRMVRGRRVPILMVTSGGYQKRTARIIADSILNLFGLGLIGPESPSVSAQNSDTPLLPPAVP

Histone deacetylase 11 [2] = target: T2, Histone deacetylase 11 (Homo sapiens, UniProt Q96DB2); assay: Inhibition of HDAC11 (unknown origin)
T2 sequence (Q96DB2 whole entry): T1 sequence (whole entry)

Histone deacetylase 11 [3] = target: T2, Histone deacetylase 11; assay: Inhibition of full length human recombinant HDAC11 using FAM-RHKK(tri-fluor-Ac)-NH2 as substrate by electrophoretic mobility shift assay
Histone deacetylase 11 [4] = target: T2, Histone deacetylase 11; assay: Inhibition of full length N-terminal GST-tagged human HDAC11
[5] = target: T3, Protein deacetylase HDAC6 (Homo sapiens, UniProt Q9UBN7); assay: Inhibition of human recombinant HDAC6 using AMC-K(Ac)GL as substrate by fluorescence based assay
T3 sequence (Q9UBN7 whole entry): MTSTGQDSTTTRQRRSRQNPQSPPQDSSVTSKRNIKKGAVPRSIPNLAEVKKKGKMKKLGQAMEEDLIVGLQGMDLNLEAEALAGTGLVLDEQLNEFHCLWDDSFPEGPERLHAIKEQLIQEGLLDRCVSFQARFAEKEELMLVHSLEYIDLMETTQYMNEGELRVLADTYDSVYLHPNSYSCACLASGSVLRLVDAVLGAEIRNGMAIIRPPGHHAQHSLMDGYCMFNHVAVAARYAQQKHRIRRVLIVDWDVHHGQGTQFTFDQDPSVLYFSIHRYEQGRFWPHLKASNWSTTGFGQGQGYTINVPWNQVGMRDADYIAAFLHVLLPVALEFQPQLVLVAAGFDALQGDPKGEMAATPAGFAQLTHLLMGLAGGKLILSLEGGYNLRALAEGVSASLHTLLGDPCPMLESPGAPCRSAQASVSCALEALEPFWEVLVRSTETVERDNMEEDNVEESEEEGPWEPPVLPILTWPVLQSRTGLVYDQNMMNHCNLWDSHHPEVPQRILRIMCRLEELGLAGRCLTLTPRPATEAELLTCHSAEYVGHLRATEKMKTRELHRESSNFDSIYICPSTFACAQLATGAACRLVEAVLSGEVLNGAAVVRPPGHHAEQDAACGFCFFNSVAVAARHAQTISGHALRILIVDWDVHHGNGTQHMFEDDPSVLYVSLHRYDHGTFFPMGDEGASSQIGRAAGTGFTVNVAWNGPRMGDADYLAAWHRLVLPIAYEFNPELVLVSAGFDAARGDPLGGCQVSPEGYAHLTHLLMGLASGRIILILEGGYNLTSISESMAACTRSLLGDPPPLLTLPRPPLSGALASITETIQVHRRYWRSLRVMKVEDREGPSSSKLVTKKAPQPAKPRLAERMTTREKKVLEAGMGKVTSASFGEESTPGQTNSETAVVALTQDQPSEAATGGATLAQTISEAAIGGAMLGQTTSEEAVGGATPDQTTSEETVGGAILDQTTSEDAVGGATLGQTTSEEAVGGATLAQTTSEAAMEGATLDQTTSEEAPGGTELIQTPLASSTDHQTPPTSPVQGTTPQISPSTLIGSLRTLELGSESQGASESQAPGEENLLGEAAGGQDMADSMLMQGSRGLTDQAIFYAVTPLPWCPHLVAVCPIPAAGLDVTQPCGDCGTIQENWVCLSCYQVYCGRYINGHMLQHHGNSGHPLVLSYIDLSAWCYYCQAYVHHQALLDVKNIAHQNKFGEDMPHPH

Histone deacetylase 8 = target: T4, Histone deacetylase 8 (Homo sapiens, UniProt Q9BY41); assay: Inhibition of human Flag-tagged HDAC8 expressed in HEK293T cells by fluorescence based analysis; assay type: cell-based
T4 sequence (Q9BY41 whole entry): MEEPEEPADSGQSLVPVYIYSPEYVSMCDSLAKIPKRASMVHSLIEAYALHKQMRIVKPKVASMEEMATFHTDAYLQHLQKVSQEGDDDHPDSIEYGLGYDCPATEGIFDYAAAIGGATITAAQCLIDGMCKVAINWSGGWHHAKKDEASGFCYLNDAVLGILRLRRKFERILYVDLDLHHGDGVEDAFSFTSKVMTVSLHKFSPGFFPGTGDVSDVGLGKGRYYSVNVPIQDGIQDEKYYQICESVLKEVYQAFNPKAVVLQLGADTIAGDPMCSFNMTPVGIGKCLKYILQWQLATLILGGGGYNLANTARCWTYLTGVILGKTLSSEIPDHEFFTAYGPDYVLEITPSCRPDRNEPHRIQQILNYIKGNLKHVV

`CCC(=O)O` gave an inhibition [1] of under 10%.

Work on `O=C(O)C(F)(F)F` yielded an inhibition [1] of under 5%.

For `O=C(O)/C=C/c1ccc(-c2ccc(O)c(C34CC5CC(CC(C5)C3)C4)c2)cc1` [ADAROTENE], the IC50 (Histone deacetylase 11 [2]) was over 10 µM.

With `CCCCCCCCCCCCCCCC(=O)O` [PALMITIC ACID] the IC50 (Histone deacetylase 11 [3]) was 900 µM.

`CC[C@H](C)[C@@H]1NC(=O)[C@H](Cc2c[nH]c3ccccc23)NC(=O)[C@H](CCCCCC(=O)NO)NC(=O)[C@H]2CCCCN2C1=O` (cyclo([Asu](NHOH)WI[dPip])) gave an IC50 (Histone deacetylase 11 [4]) of 0.01 µM.

Work on `CC(=O)O` yielded an inhibition [1] of under 10%.

For `CCCCCC(=O)O`, the inhibition [1] was under 20%.

`Cn1c(/C=C/C(=O)NO)ccc1/C=C/C(=O)c1cccc(F)c1` was tested, and the IC50 [5] was 8.4 µM.

For `CCCCCCCCCCCCCCCCNNC(=O)c1cccs1`, the IC50 (Histone deacetylase 8) was over 100 µM.

`O=C(O)CCCC[C@@H]1CCSS1` showed an inhibition [1] of under 20%.

`CCCCCCCC(=O)O` gave an inhibition [1] of under 20%.

Compound `O=C(O)CCCC[C@@H]1SC[C@@H]2NC(=O)N[C@@H]21` has an inhibition [1] of under 20%.

Compound `CCCCCCCCCCCCCCCCNNC(=O)c1ccc(N(C)C)cc1` has an IC50 (Histone deacetylase 8) of over 100 µM.

`CCCC(=O)O` was tested, and the inhibition [1] was under 5%.
